Measurements taken from the supplement of paper PMC11061612.

What was measured:
Experiment in all cases: combination Emax (second highest fraction inhibited in the dose matrix, 72 h); higher = more inhibition; extreme values may be limits of the assay
[1] = system: KP-1N (Pancreatic Carcinoma)
Method in brief: (§1)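 After 24 hours at 37°C and 5% CO2 in 1536-well plates, cells in DMEM/F12 or RPMI plus 10% FBS received two-drug dose matrices for 72 hours. Viability came from CellTiter-Glo 2.0 luminescence and was scaled as inhibition, anchored at 0 by vehicle wells and at 1 by blank wells. Combination Emax is taken as the second-highest inhibition in the matrix, and Bliss excess as the observed combination effect less EA + EB − EA·EB, with EA and EB the single-agent effects.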

[2] = system: LNCaP-Clone-FGC (Prostate Carcinoma)
Method in brief: as §1

[3] = system: RO82-W-1 (Thyroid Gland Carcinoma)
Method in brief: as §1

[4] = system: CAL-148 (Breast Carcinoma)
Method in brief: as §1

[5] = system: KURAMOCHI (Ovarian Carcinoma)
Method in brief: as §1

[6] = system: LS-180 (Colorectal Carcinoma)
Method in brief: as §1

[7] = system: HT-1376 (Bladder Carcinoma)
Method in brief: as §1

[8] = system: Ramos-2G6-4C10 (Burkitt's Lymphoma)
Method in brief: as §1

[9] = system: Hs-578-T (Breast Carcinoma)
Method in brief: as §1

[10] = system: Daoy (Other Solid Carcinomas)
Method in brief: as §1

T98G (Glioblastoma) = system: T98G (Glioblastoma)
Method in brief: as §1

[11] = system: SNU-5 (Gastric Carcinoma)
Method in brief: as §1

SMILES	combination Emax [1]	combination Emax [2]	combination Emax [3]	combination Emax [4]	combination Emax [5]	combination Emax [6]	combination Emax [7]	combination Emax [8]	combination Emax [9]	combination Emax [10]	combination Emax (T98G (Glioblastoma))	combination Emax [11]
CN(CCO)CC[C@H](CSc1ccccc1)Nc1ccc(S(=O)(=O)NC(=O)c2ccc(N3CCC([C@@H](O)c4ccccc4-c4ccc(Cl)cc4)CC3)cc2)cc1S(=O)(=O)C(F)(F)F [AZD4320] + C[C@@H]1COCCN1C2=NC(=NC(=C2)C3(CC3)[S@](=N)(=O)C)C4=C5C=CNC5=NC=C4 [AZD6738] (first compound max 1 µM, 7x7, partner max 10 µM)	0.269	0.782	0.785	0.978	0.687	0.739	0.718	0.946	0.991	0.972	0.954	0.978
CN(CCO)CC[C@H](CSc1ccccc1)Nc1ccc(S(=O)(=O)NC(=O)c2ccc(N3CCC([C@@H](O)c4ccccc4-c4ccc(Cl)cc4)CC3)cc2)cc1S(=O)(=O)C(F)(F)F [AZD4320] + C[C@@H](Nc1cc(F)cc(F)c1)c1cc(C(=O)N(C)C)cc2c(=O)cc(N3CCOCC3)oc12 [AZD8186] (first compound max 1 µM, 7x7, partner max 3 µM)	0.303	0.912	0.521	0.996	0.548	0.504	0.551	0.685	0.874	0.837	0.482	0.703
CN(CCO)CC[C@H](CSc1ccccc1)Nc1ccc(S(=O)(=O)NC(=O)c2ccc(N3CCC([C@@H](O)c4ccccc4-c4ccc(Cl)cc4)CC3)cc2)cc1S(=O)(=O)C(F)(F)F [AZD4320] + Cc1cc2ncnn2cc1Nc1ncc2c(n1)n(C1CCOCC1)c(=O)n2C [AZD7648] (first compound max 1 µM, 7x7, partner max 10 µM)	0.0993	0.415	0.395	0.744	0.161	0.234	0.786	0.718	0.63	0.152	0.255	0.45
CN(CCO)CC[C@H](CSc1ccccc1)Nc1ccc(S(=O)(=O)NC(=O)c2ccc(N3CCC([C@@H](O)c4ccccc4-c4ccc(Cl)cc4)CC3)cc2)cc1S(=O)(=O)C(F)(F)F [AZD4320] + Cn1cnc2c(F)c(Nc3ccc(Br)cc3Cl)c(C(=O)NOCCO)cc21 [Selumetinib] (first compound max 1 µM, 7x7, partner max 3 µM)	0.196	0.414	0.538	0.996	0.584	0.691	0.687	0.472	0.812	0.817	0.277	0.759
COc1nnc2ccc(N3CCC(c4ccc(OCCN5CCN(C)C(=O)[C@H]5C)cc4)CC3)nn12 [AZD5153] + C=CCn1c(=O)c2cnc(Nc3ccc(N4CCN(C)CC4)cc3)nc2n1-c1cccc(C(C)(C)O)n1 [AZD1775] (first compound max 1 µM, partner max 1 µM)	0.655	0.758	0.451	0.907	0.83	0.623	0.517	1	0.822	0.908	0.717	0.522
COc1nnc2ccc(N3CCC(c4ccc(OCCN5CCN(C)C(=O)[C@H]5C)cc4)CC3)nn12 [AZD5153] + CC1(C)CCC(CN2CCN(c3ccc(C(=O)NS(=O)(=O)c4ccc(NCC5CCOCC5)c([N+](=O)[O-])c4)c(Oc4cnc5[nH]ccc5c4)c3)CC2)=C(c2ccc(Cl)cc2)C1 [Venetoclax] (first compound max 1 µM, 7x7, partner max 1 µM)	0.481	0.743	0.407	0.557	0.747	0.61	0.242	0.589	0.761	0.487	0.491	0.469
COc1nnc2ccc(N3CCC(c4ccc(OCCN5CCN(C)C(=O)[C@H]5C)cc4)CC3)nn12 [AZD5153] + CCN(CCO)CCCOc1ccc2c(Nc3cc(CC(=O)Nc4cccc(F)c4)[nH]n3)ncnc2c1 [AZD2811] (first compound max 1 µM, 7x7, partner max 1 µM)	0.542	0.743	0.402	0.927	0.738	0.617	0.256	0.666	0.771	0.606	0.491	0.506
COc1nnc2ccc(N3CCC(c4ccc(OCCN5CCN(C)C(=O)[C@H]5C)cc4)CC3)nn12 [AZD5153] + C[C@@H]1COCCN1C2=NC(=NC(=C2)C3(CC3)[S@](=N)(=O)C)C4=C5C=CNC5=NC=C4 [AZD6738] (first compound max 1 µM, 7x7, partner max 10 µM)	0.69	0.791	0.398	0.912	0.826	0.767	0.481	0.913	0.8	0.835	0.798	0.913
COc1nnc2ccc(N3CCC(c4ccc(OCCN5CCN(C)C(=O)[C@H]5C)cc4)CC3)nn12 [AZD5153] + Cc1c2c(nn1C)CSCc1cc(n(C)n1)CSc1cc(c3ccccc3c1)OCCCc1c(C(=O)O)n(C)c3c-2c(Cl)ccc13 [AZD5991] (first compound max 1 µM, 7x7, partner max 1 µM)	0.582	0.772	0.411	1	0.927	0.585	0.264	1	0.896	0.801	0.459	0.561
COc1nnc2ccc(N3CCC(c4ccc(OCCN5CCN(C)C(=O)[C@H]5C)cc4)CC3)nn12 [AZD5153] + Cn1cnc2c(F)c(Nc3ccc(Br)cc3Cl)c(C(=O)NOCCO)cc21 [Selumetinib] (first compound max 1 µM, 7x7, partner max 10 µM)	0.563	0.728	0.456	0.79	0.707	0.828	0.26	0.56	0.736	0.598	0.476	0.582
Cc1c2c(nn1C)CSCc1cc(n(C)n1)CSc1cc(c3ccccc3c1)OCCCc1c(C(=O)O)n(C)c3c-2c(Cl)ccc13 [AZD5991] + C1CN(CCC1(C(=O)N[C@@H](CCO)C2=CC=C(C=C2)Cl)N)C3=NC=NC4=C3C=CN4 [Capivasertib] (first compound max 1 µM, 7x7, partner max 3 µM)	0.249	0.997	0.246	1	0.307	0.315	0.146	1	0.747	0.345	0.3	0.288
Cc1c2c(nn1C)CSCc1cc(n(C)n1)CSc1cc(c3ccccc3c1)OCCCc1c(C(=O)O)n(C)c3c-2c(Cl)ccc13 [AZD5991] + C=CCn1c(=O)c2cnc(Nc3ccc(N4CCN(C)CC4)cc3)nc2n1-c1cccc(C(C)(C)O)n1 [AZD1775] (first compound max 1 µM, partner max 1 µM)	0.458	0.769	0.506	1	0.796	0.47	0.459	1	0.874	0.979	0.674	0.565
Cc1c2c(nn1C)CSCc1cc(n(C)n1)CSc1cc(c3ccccc3c1)OCCCc1c(C(=O)O)n(C)c3c-2c(Cl)ccc13 [AZD5991] + CC1(C)CCC(CN2CCN(c3ccc(C(=O)NS(=O)(=O)c4ccc(NCC5CCOCC5)c([N+](=O)[O-])c4)c(Oc4cnc5[nH]ccc5c4)c3)CC2)=C(c2ccc(Cl)cc2)C1 [Venetoclax] (first compound max 1 µM, 7x7, partner max 1 µM)	0.119	0.228	0.255	0.411	0.501	0.191	0.142	0.985	0.774	0.425	0.283	0.147
Cc1c2c(nn1C)CSCc1cc(n(C)n1)CSc1cc(c3ccccc3c1)OCCCc1c(C(=O)O)n(C)c3c-2c(Cl)ccc13 [AZD5991] + CCN(CCO)CCCOc1ccc2c(Nc3cc(CC(=O)Nc4cccc(F)c4)[nH]n3)ncnc2c1 [AZD2811] (first compound max 1 µM, 7x7, partner max 1 µM)	0.234	0.33	0.274	1	0.376	0.342	0.243	1	0.81	0.505	0.585	0.204
